Experimental data published in ChEMBL document CHEMBL5647694, “Novel orally bioavailable EZH1/2 dual inhibitors with greater antitumor efficacy than an EZH2 selective inhibitor” (Cancer Sci, 2017).

Assays:
[1] = molecular target: Tyrosine-protein kinase Srms (Homo sapiens) (UniProt Q9H3Y6); test: Inhibition of N-terminal GST-tagged human SRM catalytic domain (215 to 488 residues) expressed in baculovirus-infected Sf21 cells using Blk/Lyntide as substrate at 1 uM in presence of ATP by Mobility shift assay
[2] = molecular target: Serine/threonine-protein kinase MRCK alpha (Homo sapiens) (UniProt Q5VT25); test: Inhibition of N-terminal GST-fused truncated human MRCKalpha (1 to 574 residues) expressed in baculovirus expression system using DAPK1tide as substrate at 1 uM in presence of ATP by Mobility shift assay
[3] = molecular target: Tyrosine-protein kinase ABL2 (Homo sapiens) (UniProt P42684); test: Inhibition of N-terminal GST-fused truncated human ARG (2 to 52, 74 to 1182 residues) expressed in baculovirus-infected Sf21 cells using ABLtide as substrate at 1 uM in presence of ATP by Mobility shift assay
[4] = molecular target: Casein kinase II alpha'/ beta (Homo sapiens) (UniProt P67870+P19784); test: Inhibition of N-terminal GST-fused full length human CK2alpha2 (1 to 350 residues)/His-tagged human CK2beta (1 to 215 residues ) expressed in baculovirus expression system using CK2tide as substrate at 1 uM in presence of ATP by Mobility shift assay
[5] = molecular target: Mitogen-activated protein kinase 8 (Homo sapiens) (UniProt P45983); test: Inhibition of N-terminal GST-fused human JNK1 catalytic domain (2 to 364 residues) expressed in Escherichia coli expression system using Modified ERKtide as substrate at 1 uM in presence of ATP by Mobility shift assay
[6] = molecular target: Serine/threonine-protein kinase MRCK beta (Homo sapiens) (UniProt Q9Y5S2); test: Inhibition of N-terminal GST-fused truncated human MRCKbeta (1 to 473 residues) expressed in baculovirus expression system using DAPK1tide as substrate at 1 uM in presence of ATP by Mobility shift assay
[7] = molecular target: cAMP-dependent protein kinase catalytic subunit PRKX (Homo sapiens) (UniProt P51817); test: Inhibition of N-terminal GST-fused full length human PRKX (1 to 358 residues) expressed in baculovirus expression system using Kemptide as substrate at 1 uM in presence of ATP by Mobility shift assay
[8] = molecular target: Aurora kinase B (Homo sapiens) (UniProt Q96GD4); test: Inhibition of human AurB at 1 uM by Mobility shift assay
[9] = molecular target: Serine/threonine-protein kinase PAK 1 (Homo sapiens) (UniProt Q13153); test: Inhibition of N-terminal GST-fused full length human PAK1 (1 to 545 residues) expressed in baculovirus expression system using LIMKtide as substrate at 1 uM in presence of ATP by Mobility shift assay
[10] = molecular target: High affinity nerve growth factor receptor (Homo sapiens) (UniProt P04629); test: Inhibition of N-terminal GST-tagged human TRKA cytoplasmic domain (436 to 790 residues) expressed in baculovirus-infected Sf21 cells using CSKtide as substrate at 1 uM in presence of ATP by Mobility shift assay
[11] = molecular target: Protein kinase C beta type (Homo sapiens) (UniProt P05771); test: Inhibition of N-terminal GST-fused human full length PKC-beta1 (1 to 671 residues ) expressed in baculovirus expression system using PKC peptide as substrate at 1 uM in presence of ATP by Mobility shift assay
[12] = molecular target: Aurora kinase A/Targeting protein for Xklp2 (Homo sapiens) (UniProt O14965+Q9ULW0); test: Inhibition of N-terminal GST-fused full length human AurA (1 to 403 residues)/TPX2 expressed in baculovirus-infected Sf21 cells using Kemptide as substrate at 1 uM in presence of ATP by Mobility shift assay
[13] = molecular target: Tyrosine-protein kinase TXK (Homo sapiens) (UniProt P42681); test: Inhibition of N-terminal GST-tagged human TXK catalytic domain (260 to 527 residues) expressed in baculovirus-infected Sf21 cells using Srctide as substrate at 1 uM in presence of ATP by Mobility shift assay
[14] = molecular target: Insulin-like growth factor 1 receptor (Homo sapiens) (UniProt P08069); test: Inhibition of N-terminal GST-fused human IGF1R cytoplasmic domain (959 to 1367 residues) expressed in baculovirus-infected Sf21 cells using IRS1 as substrate at 1 uM in presence of ATP by Mobility shift assay
[15] = molecular target: RAC-alpha serine/threonine-protein kinase (Homo sapiens) (UniProt P31749); test: Inhibition of N-terminal GST-tagged human AKT1 catalytic domain (104 to 480 residues) co-expressed with His-tagged PDK1 (1 to 556 residues) in baculovirus-infected Sf21 cells using Crosstide as substrate at 1 uM in presence of ATP by Mobility shift assay
[16] = molecular target: Testis-specific serine/threonine-protein kinase 2 (Homo sapiens) (UniProt Q96PF2); test: Inhibition of N-terminal GST-fused full length human TSSK2 (1 to 358 residues) expressed in baculovirus expression system using GS peptide as substrate at 1 uM in presence of ATP by Mobility shift assay
[17] = molecular target: cGMP-dependent protein kinase 2 (Homo sapiens) (UniProt Q13237); test: Inhibition of N-terminal GST-fused full length human CGK2 (1 to 762 residues) expressed in baculovirus expression system using Kemptide as substrate at 1 uM in presence of ATP by Mobility shift assay
[18] = molecular target: Serine/threonine-protein kinase Nek4 (Homo sapiens) (UniProt P51957); test: Inhibition of N-terminal GST-tagged full length human NEK4 (1 to 841 residues) expressed in baculovirus expression system using GS peptide as substrate at 1 uM in presence of ATP by Mobility shift assay
[19] = molecular target: Serine/threonine-protein kinase Sgk1 (Homo sapiens) (UniProt O00141); test: Inhibition of N-terminal GST-tagged truncated human SGK (61 to 431 residues) expressed in baculovirus expression system using SGKtide as substrate at 1 uM in presence of ATP by Mobility shift assay
[20] = molecular target: Casein kinase I isoform alpha (Homo sapiens) (UniProt P48729); test: Inhibition of N-terminal GST-fused full length human CK1alpha (1 to 337 residues) expressed in baculovirus expression system using CKtide as substrate at 1 uM in presence of ATP by Mobility shift assay
[21] = molecular target: Casein kinase I isoform gamma-3 (Homo sapiens) (UniProt Q9Y6M4); test: Inhibition of N-terminal GST-fused full length human CK1gamma3 (1 to 447 residues) expressed in baculovirus expression system using CKtide as substrate at 1 uM in presence of ATP by Mobility shift assay
[22] = molecular target: Glycogen synthase kinase-3 alpha (Homo sapiens) (UniProt P49840); test: Inhibition of N-terminal GST-fused full length human GSK3-alpha (1 to 483 residues) expressed in baculovirus expression system using CREBtide-p as substrate at 1 uM in presence of ATP by Mobility shift assay
[23] = molecular target: Insulin receptor-related protein (Homo sapiens) (UniProt P14616); test: Inhibition of N-terminal fused human IRR cytoplasmic domain (953 to 1297 residues) expressed in baculovirus-infected Sf21 cells using IRS1 as substrate at 1 uM in presence of ATP by Mobility shift assay

Structure (SMILES) | inhibition [1] [%] | inhibition [2] [%] | inhibition [3] [%] | inhibition [4] [%] | inhibition [5] [%] | inhibition [6] [%] | inhibition [7] [%] | inhibition [8] [%] | inhibition [9] [%] | inhibition [10] [%] | inhibition [11] [%] | inhibition [12] [%] | inhibition [13] [%] | inhibition [14] [%] | inhibition [15] [%] | inhibition [16] [%] | inhibition [17] [%] | inhibition [18] [%] | inhibition [19] [%] | inhibition [20] [%] | further results
Cc1cc(C)c(CNC(=O)c2cc(Cl)c3c(c2C)O[C@@](C)([C@H]2CC[C@H](N(C)C)CC2)O3)c(=O)[nH]1 [VALEMETOSTAT] | 0.6 | 0.8 | -8.7 | -4.7 | -4.9 | -1.3 | -1.9 | -1 | 2.6 | -5.7 | 1.8 | -6.8 | -7 | -4.5 | -2.9 | -3.3 | -4.3 | -2.9 | -4.2 | 5.2 | inhibition [21]: 0.5%; inhibition [22]: 1.9%; inhibition [23]: -4.6%
Cc1cc(C)c(CNC(=O)c2cc(Br)c3c(c2C)O[C@@](C)([C@H]2CC[C@H](N(C)C)CC2)O3)c(=O)[nH]1 | -0.1 | 2.7 | -7.4 | -5.5 | -3.4 | -1 | -0.6 | -3.7 | 2.3 | -5.1 | 6.9 | -4.6 | 1.3 | -2.9 | -2.9 | -2.5 | -2.3 | -2 | -3 | 5.2 | inhibition [21]: 1.1%; inhibition [22]: 1.8%; inhibition [23]: -8.8%
